# Experimental data from ChEMBL document CHEMBL3227931, “10-(Alkylamino)-4H-thieno[3,4-b][1,5]benzodiazepines. A novel class of potential neuroleptic agents” (J Med Chem, 1979).
# Calls of active or inactive are those of the source. The calls are words filed in the database; no cut-off is given here.
# Assays:
# Mus musculus [1] = assay: Antidepressant activity in po dosed mouse assessed as inhibition of tetrabenazine hexamate-induced depression administered 1 hr followed by tetrabenazine hexamate challenge measured after 30 mins; type: functional; settings: read-out: MED
# Rattus norvegicus [2] = assay: Neuroleptic activity in po dosed rat assessed as concentration required to cause 50% reduction of motor activity; type: functional
# Mus musculus [3] = assay: Neuroleptic activity in mouse assessed as inhibition of d-amphetamine sulfate-induced lethality at 20 mg/kg, ip administered for 0.5 hrs followed by d-amphetamine sulfate challenge measured after 24 hrs; type: functional, organism-based; design: dose 20 mg/kg
# Rattus norvegicus [4] = assay: Induction of catalepsy in po dosed rat measured for 0.5 to 18 hrs; type: organism-based; settings: in vivo
# Mus musculus [5] = assay: Neuroleptic activity in po dosed mouse assessed as inhibition of d-amphetamine sulfate-induced lethality administered for 0.5 hrs followed by d-amphetamine sulfate challenge measured after 24 hrs; type: functional
# Mus musculus [6] = assay: Antidepressant activity in mouse assessed as inhibition of tetrabenazine hexamate-induced depression at 25 mg/kg, po administered 1 hr followed by tetrabenazine hexamate challenge measured after 30 mins; type: functional, organism-based; design: dose 25 mg/kg
# Rattus norvegicus [7] = assay: Neuroleptic activity in rat assessed as reduction of motor activity at 50 mg/kg, ip; type: functional, organism-based; design: dose 50 mg/kg
Structure (SMILES),minimal effective dose (Mus musculus [1]) [mg/kg],MDD50 (Rattus norvegicus [2]) [mg/kg],inhibition (Mus musculus [3]),ED50 (Rattus norvegicus [4]) [mg/kg],ED50 (Mus musculus [5]) [mg/kg],inhibition (Mus musculus [6]),Activity (Rattus norvegicus [7])
CCN1CCN(C2=Nc3ccccc3N(CC)c3cscc32)CC1.O=C(O)/C=C/C(=O)O,25,28,–,–,–,–,–
Cc1cc2c(cc1C)Nc1cscc1C(NCCN1CCCCC1)=N2,–,50,inactive,–,–,–,–
CN1CCN(C2=Nc3cc(Cl)ccc3Nc3cscc32)CC1,–,13.9,–,16,–,–,–
Cc1ccc2c(c1)Nc1cscc1C(N1CCN(C)CC1)=N2,–,9,–,–,5.8,–,–
Cc1cc2c(cc1C)Nc1cscc1C(N1CCCCC1)=N2,–,50,inactive,–,–,–,–
CCN1CCN(C2=Nc3ccccc3Nc3cscc32)CC1,–,6.3,–,–,–,–,–
CN1CCN(C2=Nc3ccccc3N(C)c3cscc32)CC1.O=C(O)/C=C/C(=O)O,3.1,8.7,–,–,4.8,–,–
c1ccc2c(c1)N=C(NCCN1CCCCC1)c1cscc1N2,–,37,–,–,–,–,–
CCCN1CCN(C2=Nc3ccccc3Nc3cscc32)CC1,–,27,–,–,6,–,–
CN1CCN(C2=Nc3ccccc3N(C)c3cscc32)CC1,3.1,12,–,14,3.6,–,–
CN(C)C1=Nc2ccccc2Nc2cscc21,–,26.5,–,–,–,–,–
CN1CCN(C2=Nc3cc(Cl)c(Cl)cc3N(C)c3cscc32)CC1.O=C(O)/C=C/C(=O)O,–,35.9,–,–,8,inactive,–
CCN1c2ccccc2N=C(N2CCN(CCO)CC2)c2cscc21.O=C(O)/C=C/C(=O)O,–,50,–,–,–,inactive,–
CN1CCN(C2=Nc3ccc(Cl)cc3Nc3cscc32)CC1,–,12.3,inactive,16,–,–,–
COc1ccc2c(c1)Nc1cscc1C(N1CCN(C)CC1)=N2,–,16.1,–,15,1.1,–,–
CC(=O)OCCN1CCN(C2=Nc3cc(Cl)ccc3N(C)c3cscc32)CC1.O=C(O)/C=C/C(=O)O,–,26.7,–,–,3.2,inactive,–
CN1CCN(C2=Nc3ccc(Cl)cc3N(C)c3cscc32)CC1,12.5,–,inactive,–,–,–,–

Structure (SMILES),minimal effective dose (Mus musculus [1]) [mg/kg],MDD50 (Rattus norvegicus [2]) [mg/kg],inhibition (Mus musculus [3]),ED50 (Rattus norvegicus [4]) [mg/kg],ED50 (Mus musculus [5]) [mg/kg],inhibition (Mus musculus [6]),Activity (Rattus norvegicus [7])
CN1CCN(C2=Nc3ccccc3Nc3cscc32)CC1,–,6.1,–,11,6,–,–
OCCN1CCN(C2=Nc3ccccc3Nc3cscc32)CC1,–,33.1,–,–,–,–,–
CN1CCN(C2=Nc3cc(Cl)ccc3N(C)c3cscc32)CC1.O=C(O)/C=C/C(=O)O,–,17,–,40,1.4,inactive,–
CN1CCN(C2=Nc3ccccc3N(C)c3c2csc3Cl)CC1.O=C(O)/C=C/C(=O)O,3.1,–,inactive,–,–,–,inactive
CCCN1CCN(C2=Nc3cc(Cl)ccc3N(C)c3cscc32)CC1.O=C(O)/C=C/C(=O)O,–,24,inactive,–,–,inactive,–
CN1c2ccc(Cl)cc2N=C(N2CCN(CCO)CC2)c2cscc21.Cl,–,20.4,–,13,2,inactive,–
CCN1CCN(C2=Nc3ccccc3N(C)c3cscc32)CC1.O=C(O)/C=C/C(=O)O,6.25,–,–,–,–,–,–
Cc1cc2c(cc1C)Nc1cscc1C(N1CCN(C)CC1)=N2,–,26.2,–,–,–,–,–
CN1c2ccccc2N=C(N2CCN(CCO)CC2)c2cscc21.O=C(O)/C=C/C(=O)O,12.5,21.3,inactive,–,–,–,–
CN1c2ccccc2N=C(N2CCNCC2)c2cscc21.O=C(O)/C=C/C(=O)O,3.1,–,inactive,–,–,–,inactive
Cc1cc2c(cc1C)N(C)c1cscc1C(N1CCN(C)CC1)=N2.O=C(O)/C=C/C(=O)O,–,58,inactive,–,–,inactive,–
CN(C)CCCN1c2ccccc2Sc2ccc(Cl)cc21 [CHLORPROMAZINE],–,2,–,7,0.6,inactive,–
CCN1CCN(C2=Nc3cc(Cl)ccc3N(C)c3cscc32)CC1.O=C(O)/C=C/C(=O)O,–,7.3,–,–,1.1,inactive,–
CN1CCN(C2=Nc3cc(Cl)ccc3Nc3ccccc32)CC1 [CLOZAPINE],–,21,–,76,2,inactive,–
CCN1c2ccccc2N=C(N2CCN(C)CC2)c2cscc21.O=C(O)/C=C/C(=O)O,6.25,23,–,–,5.7,–,–
CN(C)CCCN1c2ccccc2CCc2ccccc21 [IMIPRAMINE],12,>50,–,–,> 20,–,–
